Measured values published in patent US10703757B2, “Compounds and methods for CDK8 modulation and indications therefor” (Plexxikon Inc., priority 2016, dated 2020).

System: CDK8 (phosphorylation of STAT1 at serine 727 in A549 cells)
Assay: Cell based Phospho-STAT1 assay (IFNγ-stimulated A549 cells, AlphaLISA)
Conditions: Homo sapiens, A549, A549 cells, phospho-STAT1 after IFNγ stimulation
Description: Determine Inhibitor Activity Against CDK8 in Cell Based Phospho-STAT1 Assay
This assay measures the phosphorylation of the CDK8 substrate STAT1 following Interferon-gamma (IFNγ) stimulation^1. The lung carcinoma cell line A549 is seeded in a 96 well plate in 50 μL of culture media at 5×10^4 cells/well and incubated at 37° C. overnight. Serial dilutions of compounds (in total volume of 50 μL culture media) are added to the cells and incubated at 37° C. for one hour. Human IFNγ (R&D Systems) is added to the cells at a 10 ng/mL final concentration. 4 wells containing DMSO treated cells stimulated with IFNγ serve as high controls and 4 wells containing DMSO treated unstimulated cells serve as low controls. After 30 minute IFNγ stimulation at 37° C., the culture media is removed and 50 μL of 1×AlphaLISA lysis buffer (PerkinElmer GA, USA) is added to each well. 5 μL cell lysate is transferred to a 384 well AlphaPlate (PerkinElmer GA, USA) and 5 μL containing 0.156 nM Phospho-STAT1 (Ser727) rabbit monoclonal antibody (Cell Signaling Technology), 0.156 nM Mouse Anti-STAT1 antibody (BD Transduction Laboratories), and 10 μg/mL Anti-rabbit IgG AlphaLISA acceptor beads (PerkinElmer GA, USA) diluted in 1× AlphaLISA immunoassay buffer (PerkinElmer GA, USA) is added to the cell lysates and incubated at room temperature for 90 minutes. 5 μL Anti-Mouse IgG Alpha donor beads diluted in 1× AlphaLISA immunoassay buffer (PerkinElmer GA, USA) is added to the reaction mixture and incubated at room temperature for 90 minutes. Upon excitation of these beads with laser light at 680 nm, singlet oxygen is produced. This singlet oxygen is rapidly quenched, unless the AlphaLISA Anti-Rabbit IgG acceptor beads are in close proximity, in which case a proximity signal can be measured at […]. In the presence of cellular CDK8 catalytic activity, there is a very strong proximity signal. Selective CDK8 inhibitors affect a decrease in this proximity signal through a decrease in phosphorylation of STAT1 at serine 727. The percentage inhibition at individual concentrations relative to high and low controls is calculated. The data are analyzed by using nonlinear regression to generate IC50 values.

| SMILES | IC50 [µM] |
| --- | --- |
| Cn1cc(-c2ccc(C3=C4C(C5CCC(C#N)CC5)=CC=CN4NC3)cc2)cn1 (centres unmarked) [Compound P-0302, 4-(3-(4-(1-methyl-1H-pyrazol-4-yl)phenyl)-1,2-dihydropyrazolo[1,5-a]pyridin-4-yl)cyclohexane-1-carbonitrile] | 1 to 10 |
| N#CC1CCN(c2cccc3ncc(-c4ccc(CNC(=O)c5cccnc5)cc4)n23)CC1 [Compound P-0448, N-(4-(5-(4-cyanopiperidin-1-yl)imidazo[1,2-a]pyridin-3-yl)benzyl)nicotinamide] | 1 to 10 |
| Cn1cc(-c2ccc(-c3cnc4cccc(N5CCCCC5)n34)cc2)cn1 [Compound P-0381, 3-(4-(1-methyl-1H-pyrazol-4-yl)phenyl)-5-(piperidin-1-yl)imidazo[1,2-a]pyridine] | 1 to 10 |
| Cn1cc(C#Cc2cnc3cccc(N4CCC(CC(N)=O)CC4)n23)cn1 [Compound P-0294, 2-(1-(3-((1-methyl-1H-pyrazol-4-yl)ethynyl)imidazo[1,2-a]pyridin-5-yl)piperidin-4-yl)acetamide] | 1 to 10 |
| Cn1ncc2cc(-c3nnc4cccc(C5=CCC(C#N)CC5)n34)ccc21 (centres unmarked) [Compound P-0345, 4-(3-(1-methyl-1H-indazol-5-yl)-[1,2,4]triazolo[4,3-a]pyridin-5-yl)cyclohex-3-ene-1-carbonitrile] | 1 to 10 |
| CC(C)(O)C#Cc1cccn2ncc(-c3ccc(Oc4ccccc4)cc3)c12 [Compound P-0410, 2-methyl-4-(3-(4-phenoxyphenyl)pyrazolo[1,5-a]pyridin-4-yl)but-3-yn-2-ol] | 1 to 10 |
| CNC(=O)N1CCC(Oc2cccc3ncc(-c4ccc(-c5cnn(C(F)F)c5)cc4)n23)CC1 [Compound P-0292, 4-((3-(4-(1-(difluoromethyl)-1H-pyrazol-4-yl)phenyl)imidazo[1,2-a]pyridin-5-yl)oxy)-N-methylpiperidine-1-carboxamide] | 1 to 10 |
| Cn1ncc2ccc(-c3cnn4cccc(N5CCC(C#N)(c6ccccn6)CC5)c34)cc21 [Compound P-0352, 1-(3-(1-methyl-1H-indazol-6-yl)pyrazolo[1,5-a]pyridin-4-yl)-4-(pyridin-2-yl)piperidine-4-carbonitrile] | 0.1 to 1 |

Now from value to compound:

| IC50 [µM] | SMILES |
| --- | --- |
| 0.1 to 1 | COC(=O)N1CCC(Oc2cccc3ncc(-c4ccc(-c5cnn(C(F)F)c5)cc4)n23)CC1 [Compound P-0291, methyl 4-((3-(4-(1-(difluoromethyl)-1H-pyrazol-4-yl)phenyl)imidazo[1,2-a]pyridin-5-yl)oxy)piperidine-1-carboxylate] |
| 0.1 to 1 | Cn1cc(-c2ccc(-c3cnc4cccc(N5CCC(O)CC5)n34)cc2)cn1 [Compound P-0397, 1-(3-(4-(1-methyl-1H-pyrazol-4-yl)phenyl)imidazo[1,2-a]pyridin-5-yl)piperidin-4-ol] |
| 0.0001 to 0.1 | O=C1Nc2ccccc2C12CCN(c1cccc3ncc(-c4ccc(-c5cnn(C(F)F)c5)cc4)n13)CC2 [Compound P-0441, 1′-(3-(4-(1-(difluoromethyl)-1H-pyrazol-4-yl)phenyl)imidazo[1,2-a]pyridin-5-yl)spiro[indoline-3,4′-piperidin]-2-one] |
| 0.1 to 1 | Cn1cc(C#Cc2cccn3ncc(-c4ccc(-c5cnn(C)c5)cc4)c23)cn1 [Compound P-0428, 4-((1-methyl-1H-pyrazol-4-yl)ethynyl)-3-(4-(1-methyl-1H-pyrazol-4-yl)phenyl)pyrazolo[1,5-a]pyridine] |
| 0.1 to 1 | Cn1cc(-c2ccc(-c3cnn4cccc(C5=CCSCC5)c34)cc2)cn1 [Compound P-0301, 4-(3,6-dihydro-2H-thiopyran-4-yl)-3-(4-(1-methyl-1H-pyrazol-4-yl)phenyl)pyrazolo[1,5-a]pyridine] |
| 0.1 to 1 | Cn1ncc2cc(-c3cnc4[nH]ccc4c3NCC(C)(C)C#N)ccc21 [Compound P-0336, 2,2-dimethyl-3-((5-(1-methyl-1H-indazol-5-yl)-1H-pyrrolo[2,3-b]pyridin-4-yl)amino)propanenitrile] |
